Measured values published in patent US8603986B2, “Compounds and methods for modulating cadherin-mediated processes” (McGill University, priority 2005, dated 2013).
Marks after values point to notes of the source that are not given here.

How the values were obtained:
[1] = system: SKOV3 human ovarian cancer cells; assay: Disruption of SKOV3 cell adhesion in confluent cultures; assay type: cell-based; parameters: key to Peptide Disrupts Adhesion of SKOV3 cells: +: yes; −: no; details: for Peptide Disrupts Adhesion of SKOV3 cells: Table 8 summary
Method: SKOV3 human ovarian cancer cells (kind gift from Dr. Riaz Farookhi, McGill University, Montreal, Quebec) were cultured in MEM containing 1.25 μg/ml Fungizone, 100 U/ml penicillin 100 μg/ml streptomycin, 0.1 mM nonessential amino acids, 2 mM L-glutamine, 10 μg/ml ml gentamicin and 10% fetal bovine serum. All culture reagents were purchased from GIBCO (Burlington, ON). To obtain confluent cell cultures, 100,000 cells per well were plated onto a 4 well slide (NalgeNunc, Naperville, Ill.) and incubated for 24 h at 37° C., in a humidified atmosphere (5% CO2).
(§1) Depending on their solubility, peptides were dissolved directly in culture medium and added to confluent cell cultures at the indicated concentration, or they were dissolved in dimethylformamide (DMF) to obtain a 100× concentrated solution or in water to obtain a 10× concentrated solution. The peptide stock solutions were further diluted with culture medium to a final working concentration and added to confluent cell cultures. Culture medium containing 1% solvent was used as a control. At the end of the treatment, cells were either examined by phase contrast microscopy, or fixed with 4% paraformaldehyde in PBS and stained with hematoxylin prior to light microscopic examination.
Confluent cultures of SKOV3 cells were incubated in the presence of individual peptides.

[2] = system: MCF-7 human breast cancer cells; assay: Disruption of MCF-7 cell adhesion; assay type: cell-based; parameters: key to Peptide Disrupts Adhesion of MCF-7 cells: +: yes; −: no; details: for Peptide Disrupts Adhesion of MCF-7 cells: Table 8 summary
Method: MCF-7 human breast cancer cells (kind gift from Dr. Riaz Farookhi, McGill University, Montreal, Quebec) were cultured in the same medium as SKOV3 but supplemented with 1 mM sodium pyruvate.
as §1

[3] = target: T1, N-cadherin/Fc chimeric protein (Homo sapiens, UniProt P19022); assay: Table 8 summary: peptide binds to N-cad/Fc; assay type: binding; parameters: key: +: yes; −: no
T1 construct: extracellular domain of human N-cadherin (Asp160-Ala724); purchased R&D Systems, Minneapolis, Minn
T1 sequence (P19022 160-724): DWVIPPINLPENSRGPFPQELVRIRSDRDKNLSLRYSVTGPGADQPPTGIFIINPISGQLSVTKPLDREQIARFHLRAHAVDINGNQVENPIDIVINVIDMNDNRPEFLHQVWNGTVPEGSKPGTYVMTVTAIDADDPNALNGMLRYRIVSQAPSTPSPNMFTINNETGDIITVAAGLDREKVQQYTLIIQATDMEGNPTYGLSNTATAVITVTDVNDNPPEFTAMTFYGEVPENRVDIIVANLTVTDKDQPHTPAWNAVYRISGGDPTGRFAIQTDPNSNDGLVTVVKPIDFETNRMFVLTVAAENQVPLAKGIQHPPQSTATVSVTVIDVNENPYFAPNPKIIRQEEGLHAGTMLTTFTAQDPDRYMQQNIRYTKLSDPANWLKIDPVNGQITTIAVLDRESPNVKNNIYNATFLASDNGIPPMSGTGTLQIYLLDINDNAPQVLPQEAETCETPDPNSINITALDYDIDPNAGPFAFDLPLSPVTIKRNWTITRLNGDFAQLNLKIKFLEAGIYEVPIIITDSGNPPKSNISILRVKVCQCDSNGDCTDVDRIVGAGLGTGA

[4] = target: T2, E-cadherin/Fc chimeric protein (Homo sapiens, UniProt P12830); assay: Table 8 summary: peptide binds to E-cad/Fc; assay type: binding; parameters: key: +: yes; −: no
T2 construct: extracellular domain of human E-cadherin (Asp155-Ile707); purchased R&D Systems, Minneapolis, Minn
T2 sequence (P12830 155-707): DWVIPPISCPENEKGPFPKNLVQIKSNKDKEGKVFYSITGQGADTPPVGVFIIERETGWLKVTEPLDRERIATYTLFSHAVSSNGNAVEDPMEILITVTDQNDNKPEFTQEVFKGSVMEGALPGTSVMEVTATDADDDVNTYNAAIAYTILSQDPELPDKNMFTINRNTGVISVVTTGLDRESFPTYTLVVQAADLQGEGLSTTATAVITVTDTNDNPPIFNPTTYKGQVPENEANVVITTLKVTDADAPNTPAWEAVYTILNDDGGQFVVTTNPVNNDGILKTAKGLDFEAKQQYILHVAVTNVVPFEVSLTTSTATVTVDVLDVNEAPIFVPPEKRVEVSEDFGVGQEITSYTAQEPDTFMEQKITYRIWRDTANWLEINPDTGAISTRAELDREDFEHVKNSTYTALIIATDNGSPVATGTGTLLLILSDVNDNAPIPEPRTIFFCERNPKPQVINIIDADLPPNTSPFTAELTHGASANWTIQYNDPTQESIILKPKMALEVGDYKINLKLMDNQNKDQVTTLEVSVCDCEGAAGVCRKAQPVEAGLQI

[5] = system: Human Umbilical Vein Endothelial Cells (HUVEC); assay: Disruption of HUVEC adhesion; assay type: cell-based; parameters: key to Peptide Disrupts Adhesion of HUVEC: +: yes; −: no
Method: Human Umbilical Vein Endothelial Cells (HUVEC) and Human Dermal Microvascular Endothelial Cells (HMVEC-d) were purchased from Cambrex Bio Science Walkersville, Inc. Clonetics EGM-2 and EGM-2-MV Bulletkits (Cambrex Bio Science Walkersville, Inc) were used to culture HUVEC and HMVEC-d respectively. Cells (40,000 per well) were plated onto a 4 well slide (NalgeNunc, Naperville, Ill.) and incubated at 37° C., in a humidified atmosphere (5% CO2).
as §1

[6] = target: T1, N-cadherin/Fc chimeric protein; assay: Cadherin/Fc binding assay: phage ELISA on N-cadherin/Fc; parameters: key to ELISA Phage Binding to N-Cadherin/Fc Chimeric Protein 1.2 mM calcium / ELISA Phage Binding to N-Cadherin/Fc Chimeric Protein 2 mM EDTA / ELISA Phage Binding to Cadherin/Fc Chimeric Proteins N−: +: Phage bound to the chimeric protein; −: No phage bound to the chimeric protein; details: Table 6, Ph.D.-C7C clones selected on E-cadherin/Fc
Excerpt: (§2) The peptide libraries, Ph.D.-C7C™ and Ph.D.-12™ (New England BioLabs) were used in this study. These libraries are composed of 2×10^9 randomized 7 amino acid sequences flanked by cysteine residues and linear 12 amino acid sequences, respectively. The amino acid sequences are incorporated into the minor coat protein, pIII, of M13 phage. The N-cadherin/Fc chimeric protein (R&D Systems, Minneapolis, Minn.) consists of the extracellular domain of human N-cadherin (Asp160-Ala724) and the Fc region of human IgG1. The E-cadherin/Fc chimeric protein (R&D Systems, Minneapolis, Minn.) consists of the extracellular domain of human E-cadherin (Asp155-Ile707) and the Fc region of human IgG1.
The binding of each clone to the cadherin/Fc chimeric proteins was confirmed by ELISA. Wells of ProBind microtiter plates (Falcon) were coated with either N-cadherin/Fc or E-cadherin/Fc chimeric protein (100 ng/well) or human IgG1 (which contains the Fc fragment) (100 ng/well). […] Non-coated wells were also used to exclude any phage that bound to the plastic surface. […] M13 phage without any insert were used to control the non-specific binding of the phage itself to the target. […] […] Horseradish peroxidase substrate, TMB (Sigma), was added to each well (100 μl/well and after color development the reaction was stopped by addition of 100 μl 0.5 M sulphuric acid to each well. The intensity of the color was measured at 450 nm.
(§3) The phage clones shown to bind to the N-cadherin/Fc chimeric protein by ELISA were also evaluated for their ability to bind to E-cadherin/Fc and VE-cadherin/Fc chimeric proteins. The phage clones shown to bind to the E-cadherin/Fc chimeric protein by ELISA were also evaluated for their ability to bind to N-cadherin/Fc and VE-cadherin/Fc chimeric proteins. The same ELISA protocol described in the previous section was used to perform this evaluation with the exception that the wells were coated with either 100 ng N-cadherin/Fc, E-cadherin/Fc or VE-cadherin/Fc chimeric protein (R&D Systems, Minneapolis, Minn.).

[7] = target: T2, E-cadherin/Fc chimeric protein; assay: Cadherin/Fc binding assay: phage ELISA on E-cadherin/Fc; parameters: key: +: Phage bound to the chimeric protein; −: No phage bound to the chimeric protein; details: Table 6, Ph.D.-C7C clones selected on E-cadherin/Fc
Excerpt: as §2
(§4) The binding of each clone to the cadherin/Fc chimeric proteins was confirmed by ELISA. Wells of ProBind microtiter plates (Falcon) were coated with either N-cadherin/Fc or E-cadherin/Fc chimeric protein (100 ng/well) or human IgG1 (which contains the Fc fragment) (100 ng/well). After blocking the nonspecific sites with TBS containing 3% BSA and 1.2 mM CaCl2 for 1 h at 37° C., phage clones (10^9 pfu) diluted in TBST containing 3% BSA and 1.2 mM CaCl2 (100 μl/well). Non-coated wells were also used to exclude any phage that bound to the plastic surface. After 1 h incubation at room temperature, wells were washed 3 times with TBST containing 3% BSA and 1.2 mM CaCl2. M13 phage without any insert were used to control the non-specific binding of the phage itself to the target. Monoclonal anti-M13 antibody conjugated to horseradish peroxidase (Amersham Biosciences, Piscataway, N.J.) was diluted in TBST containing 3% BSA and 1.2 mM CaCl2 (1:2,000) and added to each well (100 μl/well). After 1 h incubation at room temperature, wells were washed three times with TBST containing 3% BSA and 1.2 mM CaCl2 and once with TBS containing 1.2 mM CaCl2. Horseradish peroxidase substrate, TMB (Sigma), was added to each well (100 μl/well and after color development the reaction was stopped by addition of 100 μl 0.5 M sulphuric acid to each well. The intensity of the color was measured at 450 nm.
as §3

[8] = target: T3, VE-cadherin/Fc chimeric protein (Homo sapiens, UniProt P33151); assay: Cadherin specificity: phage ELISA on VE-cadherin/Fc; assay type: binding; parameters: key: +: Phage bound to the chimeric protein; −: No phage bound to the chimeric protein; details: Table 6, Ph.D.-C7C clones selected on E-cadherin/Fc
T3 construct: purchased R&D Systems, Minneapolis, Minn
Method: as §4, §3

[9] = confluent cultures, concentration not given

T3 sequence (P33151 with tags, fused parts or gaps limits assumed, species assumed): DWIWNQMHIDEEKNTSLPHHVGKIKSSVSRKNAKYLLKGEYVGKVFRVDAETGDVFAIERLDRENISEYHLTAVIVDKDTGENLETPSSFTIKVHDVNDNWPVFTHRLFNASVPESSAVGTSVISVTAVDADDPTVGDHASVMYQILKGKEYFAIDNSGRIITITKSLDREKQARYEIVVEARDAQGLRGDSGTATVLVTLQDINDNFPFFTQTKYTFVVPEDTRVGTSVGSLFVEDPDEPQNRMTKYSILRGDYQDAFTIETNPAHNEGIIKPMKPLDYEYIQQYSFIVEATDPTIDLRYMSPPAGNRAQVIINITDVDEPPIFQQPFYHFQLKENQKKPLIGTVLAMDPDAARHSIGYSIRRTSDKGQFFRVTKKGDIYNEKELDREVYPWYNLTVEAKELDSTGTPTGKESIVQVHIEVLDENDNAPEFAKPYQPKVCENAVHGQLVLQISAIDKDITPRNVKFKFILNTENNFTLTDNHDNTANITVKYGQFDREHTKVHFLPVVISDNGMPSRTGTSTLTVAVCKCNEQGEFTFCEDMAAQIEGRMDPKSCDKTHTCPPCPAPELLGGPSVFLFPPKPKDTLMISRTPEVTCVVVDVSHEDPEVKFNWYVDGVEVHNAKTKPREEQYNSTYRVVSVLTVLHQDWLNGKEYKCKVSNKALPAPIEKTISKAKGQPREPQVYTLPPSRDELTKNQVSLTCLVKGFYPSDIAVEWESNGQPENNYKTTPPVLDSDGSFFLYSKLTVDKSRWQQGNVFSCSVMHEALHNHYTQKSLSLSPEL

| Substance | Peptide Disrupts Adhesion of SKOV3 cells [1] | Peptide Disrupts Adhesion of MCF-7 cells [2] | Peptide Binds to N-cad/Fc [3] | Peptide Binds to E-cad/Fc [4] | further results |
| --- | --- | --- | --- | --- | --- |
| H-EWMIHYDSALTS-NH2 | + | + | + | + | effect on SKOV3 cell adhesion ([1]; 1 mg/ml): disrupted; effect on MCF-7 cell adhesion ([2]; 1 mg/ml): disrupted |
| H-SWTLYTPSGQSK-(succinyl-PEG5000-OMe)—NH2 (H-SWTLYTPSGQSK-NH2; also: succinyl-PEG5000-OMe attached, site not given here) |  |  |  |  | activity on HUVEC adhesion ([5]; 4.7 mg/ml): strong activity; incubation time within which HUVEC adhesion was disrupted ([5]; 4.7 mg/ml): within one hour |
| H-RYVCVGAH-NH2 [reference compound] | − |  |  |  | effect on SKOV3 cell adhesion [1, 9]: had no effect on cell adhesion |
| H-WELRVSSP-NH2 | + |  | + | − | effect on cell adhesion and cell morphology ([1]; 0.5 mg/ml, SKOV3 per b307 and Table 8): capable of disrupting cell adhesion and altering cell morphology |
| H-WYVCVGAH-NH2 | + | − | +# | −## | effect on SKOV3 cell adhesion and morphology ([1]; 100 and 150 μg/ml (tested 50, 100 and 150 μg/ml medium), 24 h): capable of disrupting cell adhesion and altering cell morphology; culture time after which the effect on SKOV3 cell adhesion was evident ([1]; more pronounced after 24 h): 9 h; effect on MCF-7 cell adhesion ([2]; 100 μg/ml): did not affect MCF-7 cell adhesion |
| H-AELRVSSP-NH2 [reference compound] | − |  |  |  | effect on SKOV3 cell adhesion [1, 9]: had no biological activity |
| H-SWELYYPLRANL-NH2 | + | + | + | + | effect on SKOV3 cell adhesion ([1]; 1 mg/ml): disrupted; effect on MCF-7 cell adhesion ([2]; 1 mg/ml): disrupted |
| H-HWYITTGPVREK-NH2 |  |  | + | − | effect on HUVEC adhesion ([5]; 1 mg/ml medium, up to 1 h incubation): had no effect on HUVEC adhesion; Peptide Disrupts Adhesion of HUVEC ([5]; Table 8 summary): − |
| WTFNFCTAC [Ec a5] |  |  |  |  | ELISA Phage Binding to Cadherin/Fc Chimeric Proteins N− [6]: +; ELISA Phage Binding to Cadherin/Fc Chimeric Proteins E− [7]: +; ELISA Phage Binding to Cadherin/Fc Chimeric Proteins VE− [8]: − |
